Experimental data reported in US10160755B2 (Plexxikon Inc., priority 2015, dated 2018).

Assays:
[1] = target: T1, FLT3-ITD (Homo sapiens, UniProt P36888); assay: FLT3-ITD biochemical kinase assay (AlphaScreen)
T1 construct: FLT3-ITD; Invitrogen #PV6190
T1 sequence (P36888 1-993): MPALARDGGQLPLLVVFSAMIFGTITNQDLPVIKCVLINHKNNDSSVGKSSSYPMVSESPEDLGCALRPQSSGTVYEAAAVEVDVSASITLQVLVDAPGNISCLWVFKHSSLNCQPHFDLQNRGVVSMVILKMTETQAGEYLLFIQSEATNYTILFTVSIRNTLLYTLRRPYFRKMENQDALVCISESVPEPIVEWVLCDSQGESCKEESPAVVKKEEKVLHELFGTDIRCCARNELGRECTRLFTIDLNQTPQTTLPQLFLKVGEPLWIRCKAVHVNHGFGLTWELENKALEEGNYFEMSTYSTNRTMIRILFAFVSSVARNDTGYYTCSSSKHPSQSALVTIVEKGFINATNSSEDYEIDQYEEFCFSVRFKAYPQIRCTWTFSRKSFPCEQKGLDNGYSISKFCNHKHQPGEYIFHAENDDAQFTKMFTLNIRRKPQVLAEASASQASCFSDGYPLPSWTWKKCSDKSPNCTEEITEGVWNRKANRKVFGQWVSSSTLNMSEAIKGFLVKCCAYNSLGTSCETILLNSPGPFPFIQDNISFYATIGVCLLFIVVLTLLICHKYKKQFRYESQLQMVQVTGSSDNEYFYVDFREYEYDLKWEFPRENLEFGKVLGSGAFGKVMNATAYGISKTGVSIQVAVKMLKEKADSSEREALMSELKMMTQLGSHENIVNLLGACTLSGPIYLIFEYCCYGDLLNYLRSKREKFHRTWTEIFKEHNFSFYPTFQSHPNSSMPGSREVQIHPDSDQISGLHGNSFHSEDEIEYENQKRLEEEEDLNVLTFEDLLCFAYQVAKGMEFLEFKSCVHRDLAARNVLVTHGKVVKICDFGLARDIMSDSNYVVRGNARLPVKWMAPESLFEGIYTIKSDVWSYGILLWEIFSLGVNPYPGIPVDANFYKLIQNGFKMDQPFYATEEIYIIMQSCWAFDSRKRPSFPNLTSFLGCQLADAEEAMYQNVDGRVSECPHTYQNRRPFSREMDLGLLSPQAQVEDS
In short: (§1)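 Recombinant enzyme phosphorylated biotin-poly(Glu4-Tyr) peptide (30 nM final); ATP final 10 μM for FLT3-D835Y, 100 μM for FLT3-ITD. AlphaScreen read-out: streptavidin donor and anti-phosphotyrosine (PY20) acceptor beads, 20 and 60 min at room temperature; inhibition seen as drop in 580 nm proximity signal; IC50 determined.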

[2] = target: T2, FLT3-D835Y (Homo sapiens, UniProt P36888, D835Y); assay: FLT3-D835Y biochemical kinase assay (AlphaScreen)
T2 construct: purchased Invitrogen PV3967
T2 sequence (P36888 27-993 D835Y): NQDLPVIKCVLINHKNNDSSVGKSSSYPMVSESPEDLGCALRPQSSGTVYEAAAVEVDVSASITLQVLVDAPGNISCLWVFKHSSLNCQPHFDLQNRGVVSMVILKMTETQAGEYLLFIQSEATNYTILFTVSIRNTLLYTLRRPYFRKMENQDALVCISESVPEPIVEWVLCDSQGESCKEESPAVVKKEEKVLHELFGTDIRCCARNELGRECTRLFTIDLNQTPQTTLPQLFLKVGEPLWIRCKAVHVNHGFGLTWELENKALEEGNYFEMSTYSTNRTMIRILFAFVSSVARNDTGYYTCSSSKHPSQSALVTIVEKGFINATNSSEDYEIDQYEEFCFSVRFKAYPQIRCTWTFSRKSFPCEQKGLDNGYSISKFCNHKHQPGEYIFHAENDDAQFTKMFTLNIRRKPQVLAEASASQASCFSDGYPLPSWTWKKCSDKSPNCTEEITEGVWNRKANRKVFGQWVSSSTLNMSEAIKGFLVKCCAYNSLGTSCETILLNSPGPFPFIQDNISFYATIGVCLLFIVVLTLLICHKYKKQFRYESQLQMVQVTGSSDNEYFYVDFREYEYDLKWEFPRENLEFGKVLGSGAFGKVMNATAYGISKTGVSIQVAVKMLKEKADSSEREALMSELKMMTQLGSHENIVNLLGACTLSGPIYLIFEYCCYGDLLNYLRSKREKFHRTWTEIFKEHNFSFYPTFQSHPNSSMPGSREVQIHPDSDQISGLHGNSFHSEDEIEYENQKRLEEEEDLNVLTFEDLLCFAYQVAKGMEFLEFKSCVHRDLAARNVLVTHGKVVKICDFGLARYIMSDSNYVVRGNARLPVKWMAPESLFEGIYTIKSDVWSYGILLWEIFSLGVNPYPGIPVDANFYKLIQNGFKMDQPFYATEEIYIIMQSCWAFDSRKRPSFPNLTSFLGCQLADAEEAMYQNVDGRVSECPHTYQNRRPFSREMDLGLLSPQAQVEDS
In short: as §1

An IC50 [1] of 0.0001 to 1 µM and an IC50 [2] of 0.0001 to 1 µM were found for CCN1CCN(c2cccc(-c3cnc4[nH]cc(-c5ccc6ncn(C(C)(C)C)c6c5)c4n3)c2)CC1 [P-330, 7-(3-tert-butylbenzimidazol-5-yl)-2-[3-(4-ethylpiperazin-1-yl)phenyl]-5H-pyrrolo[2,3-b]pyrazine] in this work.

An IC50 [1] of 0.0001 to 1 µM and an IC50 [2] of 0.0001 to 1 µM were found for c1cc(-c2cnc3[nH]cc(-c4ccc5ncn(C6CCCNC6)c5c4)c3n2)cc(N2CCCCC2)c1 (stereo not shown) [P-337, 7-[3-(3-piperidyl)benzimidazol-5-yl]-2-[3-(1-piperidyl)phenyl]-5H-pyrrolo[2,3-b]pyrazine] in this work.

An IC50 [1] of 0.0001 to 1 µM and an IC50 [2] of 0.0001 to 1 µM were found for c1cc(-c2cnc3[nH]cc(-c4ccc5ncn(C6CCCNC6)c5c4)c3n2)cc(N2CCCCC2)n1 (stereo not shown) [P-339, 7-[3-(3-piperidyl)benzimidazol-5-yl]-2-[2-(1-piperidyl)-4-pyridyl]-5H-pyrrolo[2,3-b]pyrazine] in this work.

An IC50 [1] of 0.0001 to 1 µM and an IC50 [2] of 0.0001 to 1 µM were found for CC(C)(C)n1cnc2ccc(-c3n[nH]c4ncc(-c5cccc(N6CCCS6(=O)=O)c5)cc34)cc21 [P-296, 2-[3-[3-(3-tert-butylbenzimidazol-5-yl)-1H-pyrazolo[3,4-b]pyridin-5-yl]phenyl]-1,2-thiazolidine 1,1-dioxide] in this work.

An IC50 [1] of 0.0001 to 1 µM and an IC50 [2] of 0.0001 to 1 µM were found for CC(C)(C)n1cnc2ccc(-c3c[nH]c4nnc(Cl)cc34)cc21 [P-314, 5-(3-tert-butylbenzimidazol-5-yl)-3-chloro-7H-pyrrolo[2,3-c]pyridazine] in this work.

An IC50 [1] of 0.0001 to 1 µM and an IC50 [2] of 0.0001 to 1 µM were found for CC(C)(C)n1cnc2ccc(-c3c[nH]c4ncc(-c5ccc(C#N)nc5)cc34)cc21 [P-290, 5-[3-(3-tert-butylbenzimidazol-5-yl)-1H-pyrrolo[2,3-b]pyridin-5-yl]pyridine-2-carbonitrile] in this work.

An IC50 [1] of 0.0001 to 1 µM and an IC50 [2] of 0.0001 to 1 µM were found for c1cc(N2CCOCC2)ncc1-c1cnc2[nH]cc(-c3ccc4ncn(C5CCCNC5)c4c3)c2c1 (stereo not shown) [P-321, 4-[5-[3-[3-(3-piperidyl)benzimidazol-5-yl]-1H-pyrrolo[2,3-b]pyridin-5-yl]-2-pyridyl]morpholine] in this work.

An IC50 [1] of 0.0001 to 1 µM and an IC50 [2] of 0.0001 to 1 µM were found for Cc1ncc(C#Cc2cnc3[nH]cc(-c4ccc5ncn(C(C)(C)C)c5c4)c3c2)cn1 [P-383, 1-tert-butyl-6-[5-[2-(2-methylpyrimidin-5-yl)ethynyl]-1H-pyrrolo[2,3-b]pyridin-3-yl]benzimidazole] in this work.

An IC50 [1] of 0.0001 to 1 µM and an IC50 [2] of 0.0001 to 1 µM were found for O=S1(=O)CCCCN1c1cc(-c2cnc3[nH]cc(-c4ccc5ncn(C6CCCNC6)c5c4)c3n2)ccn1 (stereo not shown) [P-310, 2-[4-[7-[3-(3-piperidyl)benzimidazol-5-yl]-5H-pyrrolo[2,3-b]pyrazin-2-yl]-2-pyridyl]thiazinane 1,1-dioxide] in this work.

An IC50 [1] of 0.0001 to 1 µM and an IC50 [2] of 0.0001 to 1 µM were found for CCN1CCN(c2ccc(-c3cnc4[nH]cc(-c5ccc6ncn(C7CCCNC7)c6c5)c4n3)cn2)CC1 (stereo not shown) [P-366, 2-[6-(4-ethylpiperazin-1-yl)-3-pyridyl]-7-[3-(3-piperidyl)benzimidazol-5-yl]-5H-pyrrolo[2,3-b]pyrazine] in this work.

An IC50 [1] of 0.0001 to 1 µM and an IC50 [2] of 0.0001 to 1 µM were found for CCN1CCN(c2ccc(-c3cnc4[nH]cc(-c5ccc6ncn(C(C)(C)C)c6c5)c4n3)cc2)CC1 [P-358, 7-(3-tert-butylbenzimidazol-5-yl)-2-[4-(4-ethylpiperazin-1-yl)phenyl]-5H-pyrrolo[2,3-b]pyrazine] in this work.

An IC50 [1] of 0.0001 to 1 µM and an IC50 [2] of 0.0001 to 1 µM were found for FC(F)n1cc(-c2cnc3[nH]cc(-c4ccc5ncn(C6CCCNC6)c5c4)c3c2)cn1 (stereo not shown) [P-274, 5-[1-(difluoromethyl)pyrazol-4-yl]-3-[3-(3-piperidyl)benzimidazol-5-yl]-1H-pyrrolo[2,3-b]pyridine] in this work.

An IC50 [1] of 0.0001 to 1 µM and an IC50 [2] of 0.0001 to 1 µM were found for CN1CCN(c2cccc(-c3cnc4[nH]cc(-c5ccc6ncn(C7CCCNC7)c6c5)c4n3)c2)CC1 (stereo not shown) [P-332, 2-[3-(4-methylpiperazin-1-yl)phenyl]-7-[3-(3-piperidyl)benzimidazol-5-yl]-5H-pyrrolo[2,3-b]pyrazine] in this work.

An IC50 [1] of 0.0001 to 1 µM and an IC50 [2] of 0.0001 to 1 µM were found for COc1cnc2[nH]cc(-c3ccc4ncn(C5CCC5)c4c3)c2c1 [P-061, 1-cyclobutyl-6-(5-methoxy-1H-pyrrolo[2,3-b]pyridin-3-yl)benzimidazole] in this work.

An IC50 [1] of 0.0001 to 1 µM and an IC50 [2] of 0.0001 to 1 µM were found for CC(C)(C)n1cnc2ccc(-c3c[nH]c4ncc(-c5cnc(O)nc5)nc34)cc21 [P-363, 5-[7-(3-tert-butylbenzimidazol-5-yl)-5H-pyrrolo[2,3-b]pyrazin-2-yl]pyrimidin-2-ol] in this work.

An IC50 [1] of 0.0001 to 1 µM and an IC50 [2] of 0.0001 to 1 µM were found for CC(C)(C)n1cnc2ccc(-c3c[nH]c4ncc(-c5ccc(N6CCC(F)(F)CC6)nc5)nc34)cc21 [P-356, 7-(3-tert-butylbenzimidazol-5-yl)-2-[6-(4,4-difluoro-1-piperidyl)-3-pyridyl]-5H-pyrrolo[2,3-b]pyrazine] in this work.

An IC50 [1] of 0.0001 to 1 µM and an IC50 [2] of 0.0001 to 1 µM were found for CCN1CCN(c2cc(-c3cnc4[nH]cc(-c5ccc6ncn(C(C)(C)C)c6c5)c4n3)ccn2)CC1 [P-328, 7-(3-tert-butylbenzimidazol-5-yl)-2-[2-(4-ethylpiperazin-1-yl)-4-pyridyl]-5H-pyrrolo[2,3-b]pyrazine] in this work.

An IC50 [1] of 0.0001 to 1 µM and an IC50 [2] of 0.0001 to 1 µM were found for CC(C)(C)n1cnc2ccc(-c3n[nH]c4ncc(-c5ccnc(N6CCOCC6)c5)cc34)cc21 [P-297, 4-[4-[3-(3-tert-butylbenzimidazol-5-yl)-1H-pyrazolo[3,4-b]pyridin-5-yl]-2-pyridyl]morpholine] in this work.

An IC50 [1] of 0.0001 to 1 µM and an IC50 [2] of 0.0001 to 1 µM were found for Cc1cc(C#Cc2cnc3[nH]cc(-c4ccc5ncn(C6CCCNC6)c5c4)c3n2)cc(C)n1 (stereo not shown) [P-283, 2-[2-(2,6-dimethyl-4-pyridyl)ethynyl]-7-[3-(3-piperidyl)benzimidazol-5-yl]-5H-pyrrolo[2,3-b]pyrazine] in this work.

An IC50 [1] of 0.0001 to 1 µM and an IC50 [2] of 0.0001 to 1 µM were found for COc1cc(-c2cnc3[nH]cc(-c4ccc5ncn(C(C)(C)C)c5c4)c3c2)c(OC)nn1 [P-292, 1-tert-butyl-6-[5-(3,6-dimethoxypyridazin-4-yl)-1H-pyrrolo[2,3-b]pyridin-3-yl]benzimidazole] in this work.

An IC50 [1] of 0.0001 to 1 µM and an IC50 [2] of 0.0001 to 1 µM were found for c1cc(N2CCCCC2)ccc1-c1cnc2[nH]cc(-c3ccc4ncn(C5CCCNC5)c4c3)c2n1 (stereo not shown) [P-346, 7-[3-(3-piperidyl)benzimidazol-5-yl]-2-[4-(1-piperidyl)phenyl]-5H-pyrrolo[2,3-b]pyrazine] in this work.

An IC50 [1] of 0.0001 to 1 µM and an IC50 [2] of 0.0001 to 1 µM were found for CN1CCN(c2ccc(-c3cnc4[nH]cc(-c5ccc6ncn(C(C)(C)C)c6c5)c4n3)cc2)CC1 [P-341, 7-(3-tert-butylbenzimidazol-5-yl)-2-[4-(4-methylpiperazin-1-yl)phenyl]-5H-pyrrolo[2,3-b]pyrazine] in this work.

An IC50 [1] of 0.0001 to 1 µM and an IC50 [2] of 0.0001 to 1 µM were found for CC(C)(C)n1cnc2ccc(-c3c[nH]c4ncc(-c5ccc(N6CCOCC6)nc5)nc34)cc21 [P-326, 4-[5-[7-(3-tert-butylbenzimidazol-5-yl)-5H-pyrrolo[2,3-b]pyrazin-2-yl]-2-pyridyl]morpholine] in this work.
